Measured values: patent publication US8609419B2, “Method for inserting a nucleic acid of interest into a prokaryotic or eukaryotic cell by homologous recombination” (Centre National de la Recherche Scientifique, priority 2002, dated 2013)

Tested on: Escherichia coli cell genome
Experiment: Targeted insertion of lacZ::kan by homologous recombination from N-AcO-AAF-treated pCUL-lacZ::kan plasmid (white/total colonies)
Assay type: cell-based
Conditions: for Recombination frequency: white colonies/total colonies / Total number of colonies/number of recombined colonies: E. coli
Protocol: Reaction mixture • Plasmid DNA: Final concentration of 0.5 μg/μl in 2×10^−3 M citrate buffer, pH 7 • N-AcO-AAF: Final concentration of 400 μg/ml in ethanol.
60 μg DNA are added in 114 μl of 2×10^−3 M citrate buffer, pH7, added with 3 μl of ethanol at 100%.
The solution is preheated at 37° C.; then 3 μl of N-AcO-AAF (400 μg/ml) are added, marked with tritium (^3H).
Reaction time: 4, 8, 20 minutes.
40 μl are taken at the various selected times. The reaction is stopped by a DNA precipitation step with 3 volumes of ethanol/sodium acetate 0.16M followed by three other precipitation steps under the same conditions.
The percentage of modified bases is determined measuring the number of plasmid mols through UV spectrophotometry and the number of bound AAF mols, through βradioactivity counting.
The result is expressed in percentage of modified bases. The reaction time is adapted as a function of the size of the plasmid and the desired percentage of modified bases.
E. coli cells are transformed following the conventional electroporation method by using the conditions recommended by the device manufacturers to this end (Gene Pulser from Biorad for example).
In the example, transformant clones are selected on a LB-agar medium containing kanamycin (20 μg/ml) and the lack of β-galactosidase activity (being expressed by white colonies instead of blue ones), i.e. a phenotype typical of a non reciprocal recombination event is visualized by means of the presence of X-gal (5-bromo-4-chloro-3-indolyl-β-D-galactopyranoside) and IPTG (isopropyl-β-D-thiogalactopyranoside) in the dishes.

With `CC(=O)ON(C(C)=O)c1ccc2c(c1)Cc1ccccc1-2` [N-AcO-AAF, N-acetoxy-2-acetylaminofluorene] the “Recombination frequency: white colonies/total colonies” value (10 AAF injuries per plasmid) was 0.056, the “Total number of colonies/number of recombined colonies” value (10 AAF injuries per plasmid) was 17819/10 and the “Recombination frequency: white colonies/total colonies” value (20 AAF injuries per plasmid) was 0.17. The “Total number of colonies/number of recombined colonies” value (20 AAF injuries per plasmid) was 9692/17, the “Recombination frequency: white colonies/total colonies” value (33 AAF injuries per plasmid) was 0.32 and the “Total number of colonies/number of recombined colonies” value (33 AAF injuries per plasmid) was 2301975. For the same compound, the “Recombination frequency: white colonies/total colonies” value (43 AAF injuries per plasmid) was 1.41, the “Total number of colonies/number of recombined colonies” value (43 AAF injuries per plasmid) was 16554/237 and the targeted recombinant molecules (67 AAF injuries on the plasmid, wild strain for recombination systems) was “more than 6%”. For the same compound, the “Recombination frequency: white colonies/total colonies” value (67 AAF injuries per plasmid) was 6.07, the “Total number of colonies/number of recombined colonies” value (67 AAF injuries per plasmid) was 1934/125 and the “increase in the recombination frequency” value (67 AAF injuries versus spontaneous events) was “more than 1,700 fold”. The “frequency of homologous recombination events” value (67 molecules of N-AcO-AAF per molecule of the DNA vector) was “more than 600×10^−4”, the “frequency of non reciprocal homologous recombination events from the DNA vector to the chromosome” value (N-AcO-AAF bound onto the polynucleotide) was “higher than 0.05 homologous recombination events per transfected cell” and the “frequency of homologous recombination events” value (ten molecules of N-AcO-AAF per molecule of the DNA vector) was 5.61×10^−4.
